Assay results from patent US12708630B2, “Combined therapy of 4′-thio-5-aza-2′-deoxycytidine and Venetoclax” (PINOTBIO, INC., priority 2021, dated 2026).
Like-named read-outs stand apart in the source and are kept apart here.

Tests used:
leukemia cell lines = assay: Growth-inhibitory activity on leukemia cell lines (GI50); type: cell-based; conditions: leukemia cell lines, 72 hours, range over cell lines; read-out: GI50 values (half maximal growth inhibitory concentrations)
Method: (§1) The growth-inhibitory activity of Aza-T-dCyd, a DNMT1 inhibitor, was measured in leukemia cell lines to determine its inhibitory effect on cell proliferation.
The growth-inhibitory activity of DNMT1 inhibitors, Aza-T-dCyd and Decitabine, was measured on leukemia cell lines to determine their effect on cell proliferation.

AML cell lines = assay: Cell viability inhibition in AML cell lines; type: cell-based; conditions: various AML cell lines, FIG. 19
Method: as §1

[1] = system: RRM1 protein, dCTP and dTTP; assay: RRM1 expression and pyrimidine level in cells; type: cell-based
Source text: The reduction of dCTP and dTTP, which act as important precursors for cancer cells to replicate DNA, can cause replication stress and generate a strong DNA damage response.

DNA methylation = assay: DNA demethylation; type: cell-based
Source text: Through DNA demethylation caused by Aza-T-dCyd treatment, various tumor suppressor genes and genes required for differentiation induction of AML cells were reactivated, and the reactivated expression patterns of these genes were confirmed by RNA-seq data analysis (FIG. 24).

[2] = Pharmacokinetic evaluation in Mice (Table 3); type: in vivo; conditions: for AUC(0-inf) / AUC(0-t) / Cmax / Tmax / half-life: mouse, in vivo, Mice; for half-life: read-out: T½ (converted)
Method: Aza-T-dCyd was administered orally and intravenously at various concentrations to Mice, Rats and Dogs to determine the PK profile.

[3] = system: systemic MV4-11 engraftment model; conditions: for survival: oral
Method: After establishing a systemic MV4-11 engraftment model that more accurately depicts the disease in humans, Aza-T-dCyd was administered orally at doses ranging from 0.4 to 1.5 mg/kg.
After establishment of the systemic MV4-11 engraftment model, Aza-T-dCyd was administered orally at doses of 1.5, 2.0, and 2.5 mg/kg (using the standard dose/dosing schedule used in preclinical trials for decitabine/azacytidine).
After establishing a systemic MV4-11 engraftment model, blood was collected at pre-treatment (Day 21) and mid-treatment (Day 36, 56, 77) in the Aza-T-dCyd and Decitabine/Azacytidine groups and analyzed for complete blood count (CBC) values.
To determine whether the anti-cancer efficacy in the systemic MV4-11 engraftment model was directly related to the ability to suppress the number of cancer cells, we performed experiments to measure body luminescence after systemic engraftment using the luciferase-transfected Mv4-11 cell line.

DNMT3A = DNMT3A expression in HL-60 xenograft tumor samples; type: in vivo, mice; conditions: 2 mg/kg NTX-301 intraperitoneally, day 11
Method: (§2) As the efficacy of DNMT1 inhibitors correlates with their selective profile for targeting DNMT1 and the de novo methyltransferases DNMT3A and DNMT3B, we confirmed the expression of DNMT1, DNMT3A, and DNMT3B in the Aza-T-dCyd and Decitabine treated groups in this xenograft model (FIG. 27).
(§3) In the HL-60 xenograft mice model, 2 mg/kg of NTX-301 (Aza-T-dCyd) or 0.75 mg/kg of Decitabine were administered intraperitoneally, and then tumor samples were collected on day 11 to determine the expression of DNMT1, DNMT3A, and DNMT3B. […] On the other hand, the expression levels of DNMT3A and DNMT3B were different in the Aza-T-dCyd and Decitabine treatment groups.

HCT-116 (colorectal) = HCT-116 (colorectal) xenograft model; type: in vivo, Mouse; conditions: nude mouse, 1 mg/kg, (4) cycles
Method: (§4) The efficacy of Aza-T-dCyd was confirmed by tumor growth curves after administration of Aza-T-dCyd in various solid cancer xenograft models. Aza-T-dCyd at a dose of 1~2 mg/kg was administered repeatedly for 2~6 cycles in QD×5, showing excellent anti-cancer effects (evidenced by test/control (T/C) value≤40%).

NCI-H522 (NSCLC) = NCI-H522 (NSCLC) xenograft model; type: in vivo; conditions: nude mouse, 2 mg/kg, (6) cycles
Method: as §4

[4] = Preliminary toxicity experiments (Comet assay, bone marrow); type: in vivo; conditions: mice
Method: As a preliminary toxicity assessment of the Aza-T-dCyd compound, preliminary toxicity experiments were conducted to determine the presence of toxicity symptoms (tissue changes) and DNA damage in bone marrow in mice after 2 weeks of systemic administration, and to assess the cellular composition in bone marrow of mice after 4 weeks of systemic administration.

GLP rat Toxicology study = type: in vivo, rats
Method: GLP-Tox studies have been conducted in rats and dogs, with 2 cycles of QD×5d at PO.
In the GLP rat Toxicology study, rats received 2.5, 5, and 10 mg/kg of Aza-T-dCyd (15, 30, and 60 mg/m2) per day.

DNMT3B = DNMT3B (Homo sapiens, UniProt Q9UBC3); assay: DNMT3B expression in HL-60 xenograft tumor samples; type: in vivo, mice; set-up: tumor samples were collected on day 11 to determine the expression of DNMT1, DNMT3A, and DNMT3B; from tissue; host or cells: HL-60 xenograft tumour samples (mouse host); conditions: 2 mg/kg NTX-301 or 0.75 mg/kg Decitabine intraperitoneally, day 11
Method: as §2, §3

Q: Which GI50 (leukemia cell lines) does the source give for `Nc1ncn([C@H]2CC(O)[C@@H](CO)S2)c(=O)n1` (some centres unmarked) [Aza-T-dCyd, 4′-thio-5-aza-2′-deoxycytidine] here?
A: The GI50 was 0.014 to 0.69 µM.

Q: What about the cell viability inhibition (AML cell lines) of the same compound?
A: The cell viability inhibition was “excellent cell viability inhibition”.

Q: And the RRM1 protein expression [1]?
A: The RRM1 protein expression was “inhibited the expression of RRM1 protein”.

Q: And the “amount of dCTP and dTTP in the cells” value [1]?
A: Its value is “decreased the amount of dCTP and dTTP”.

Q: What about the “overall DNA methylation levels” value (DNA methylation) of the same compound?
A: Its value is “decrease in overall DNA methylation levels”.

Q: And the “pattern of DNA demethylation” value (DNA methylation)?
A: Its value is “biased and selective demethylation”.

Q: And the oral bioavailability ([2]; mice)?
A: The oral bioavailability was “orally bioavailable”.

Q: And the AUC(0-inf) ([2]; Table 3, IV 1 mg/kg)?
A: Its AUC(0-inf) is 269 ng·h/mL.

Q: And the AUC(0-t) ([2]; Table 3, IV 1 mg/kg)?
A: The AUC(0-t) was 257 ng·h/mL.

Q: And the Cmax ([2]; Table 3, IV 1 mg/kg)?
A: Its Cmax is 341 ng/mL.

Q: What about the Tmax ([2]; Table 3, IV 1 mg/kg) of the same compound?
A: The Tmax was 4.98 min.

Q: What about the half-life ([2]; Table 3, IV 1 mg/kg) of the same compound?
A: The half-life was 30.2 min.

Q: What about the AUC(0-inf) ([2]; Table 3, PO 0.5 mg/kg) of the same compound?
A: The AUC(0-inf) was 68.5 ng·h/mL.

Q: What about the AUC(0-t) ([2]; Table 3, PO 0.5 mg/kg) of the same compound?
A: Its AUC(0-t) is 62.4 ng·h/mL.

Q: What about the Cmax ([2]; Table 3, PO 0.5 mg/kg) of the same compound?
A: The Cmax was 51.8 ng/mL.

Q: And the Tmax ([2]; Table 3, PO 0.5 mg/kg)?
A: The Tmax was 18 min.

Q: And the half-life ([2]; Table 3, PO 0.5 mg/kg)?
A: The half-life was 42.1 min.

Q: What about the AUC(0-inf) ([2]; Table 3, PO 1 mg/kg) of the same compound?
A: Its AUC(0-inf) is 112 ng·h/mL.

Q: And the AUC(0-t) ([2]; Table 3, PO 1 mg/kg)?
A: The AUC(0-t) was 106 ng·h/mL.

Q: And the Cmax ([2]; Table 3, PO 1 mg/kg)?
A: Its Cmax is 103 ng/mL.

Q: What about the Tmax ([2]; Table 3, PO 1 mg/kg) of the same compound?
A: Its Tmax is 18 min.

Q: And the half-life ([2]; Table 3, PO 1 mg/kg)?
A: Its half-life is 37.7 min.

Q: What about the AUC(0-inf) ([2]; Table 3, PO 3 mg/kg) of the same compound?
A: Its AUC(0-inf) is 931 ng·h/mL.

Q: And the AUC(0-t) ([2]; Table 3, PO 3 mg/kg)?
A: The AUC(0-t) was 919 ng·h/mL.

Q: What about the Cmax ([2]; Table 3, PO 3 mg/kg) of the same compound?
A: Its Cmax is 576 ng/mL.

Q: And the Tmax ([2]; Table 3, PO 3 mg/kg)?
A: Its Tmax is 27 min.

Q: And the half-life ([2]; Table 3, PO 3 mg/kg)?
A: The half-life was 49.4 min.

Q: What about the AUC(0-inf) ([2]; Table 3, PO 10 mg/kg) of the same compound?
A: Its AUC(0-inf) is 2600 ng·h/mL.

Q: What about the AUC(0-t) ([2]; Table 3, PO 10 mg/kg) of the same compound?
A: The AUC(0-t) was 2580 ng·h/mL.

Q: And the Cmax ([2]; Table 3, PO 10 mg/kg)?
A: Its Cmax is 1930 ng/mL.

Q: What about the Tmax ([2]; Table 3, PO 10 mg/kg) of the same compound?
A: Its Tmax is 27 min.

Q: What about the half-life ([2]; Table 3, PO 10 mg/kg) of the same compound?
A: The half-life was 66.6 min.

Q: And the “anti-AML activity and survival” value ([3]; Aza-T-dCyd oral 1.5, 2.0 and 2.5 mg/kg, decitabine/azacytidine at standard preclinical dose/schedule)?
A: Its value is “very good anti-AML activity and improved survival”.

Q: And the body luminescence ([3]; luciferase-transfected Mv4-11 cell line, systemic engraftment)?
A: The body luminescence was “inhibited body luminescence more strongly than the actual Azacytidine treatment”.

Q: What about the “complete blood count (WBC, RBC, Neutrophil, Platelet)” value ([3]; mouse, in vivo) of the same compound?
A: Its value is “no changes”.

Q: What about the survival ([3]; highest dose (range 0.4 to 1.5 mg/kg)) of the same compound?
A: Its survival is “more than half of the mice survived to the end of the experiment”.

Q: What about the survival ([3]; lowest dose of 0.4 mg/kg) of the same compound?
A: The survival was “statistically significant survival improvement”.

Q: And the “DNMT3A expression level in tumor samples” value (DNMT3A)?
A: Its value is “not affected”.

Q: What about the “Optimal T/C (%) (test/control)” value (HCT-116 (colorectal)) of the same compound?
A: The value was 21%.

Q: And the “Optimal T/C (%) (test/control)” value (NCI-H522 (NSCLC))?
A: The value was 31%.

Q: What about the “cellular composition of the bone marrow” value ([4]; 4 weeks of continuous administration) of the same compound?
A: The value was “no changes in the various cells that make up the bone marrow”.

Q: And the “organ damage at necropsy” value ([4]; after two weeks)?
A: Its value is “no organ damage”.

Q: What about the “Comet assay for DNA damage in bone marrow” value ([4]; after two weeks of treatment, versus untreated control) of the same compound?
A: Its value is “no changes in various indicators of DNA damage”.

Q: And the weight changes ([4]; two-week systemic administration)?
A: The weight changes was “no significant weight changes”.

Q: What about the “Testicular toxicity, including decreased sperm count” value (GLP rat Toxicology study; rat) of the same compound?
A: Its value is “reversible upon discontinuation”.

Q: And the Toxicity target organs (GLP rat Toxicology study; rat, 2.5, 5 and 10 mg/kg per day)?
A: Its Toxicity target organs is “bone marrow, thymus, heart, and testes”.

Q: What about the “DNMT3B expression level in tumor samples” value (DNMT3B) of the same compound?
A: Its value is “significantly reduced”.
